We go through two compounds from patent US20250073164A1, “IONIZABLE DISULFIDE LIPIDS AND LIPID NANOPARTICLES DERIVED THEREFROM” (PROVIDENCE THERAPEUTICS HOLDINGS INC., priority 2021, published 2025).

Each structure is given as a SMILES string.

Data set [1] can be described thus: Lipids stability characterized by 1H NMR. More on the design: key: +: the lipid is stable; Minor: the main characteristic peaks of the lipid are present, no major change of the ^1H NMR spectrum is observed, but some extra peaks appearance observed; Major: main the characteristic peaks of the lipid underwent transformation, some peaks can be missing or decreased in intensity, impurity peaks either increased in size or represent main peaks, as observed on ^1H NMR. The data set is classed as physicochemical. The procedure:
The lipids stability was evaluated by ^1H NMR at −20° C. and at room temperature. “+” means the lipid is stable, “Minor” means the main characteristic peaks of the lipid are present, no major change of the ^1H NMR spectrum is observed, but some extra peaks appearance observed. “Major” means main the characteristic peaks of the lipid underwent transformation, some peaks can be missing or decreased in intensity, impurity peaks either increased in size or represent main peaks, as observed on ^1H NMR. “n.d.” means “not determined”.

Data set [2] in a line: Surface pKa of LNPs, TNS fluorescence assay. The data set is classed as physicochemical. The note with it: LNPs formed with the ionizable lipid, pH at 50% LNP protonation. The procedure:
The surface pKa values of LNPs were determined as follows. Briefly, solutions of 100 mM citrate buffer at, 100 mM Tris-HCl and 50 mM sodium bicarbonate-sodium hydroxide buffer were titrated to pH values varying by 1 from 3.0 to 11.0 and aliquoted into a clear 96-well plate. LNPs and 2-(p-toluidinyl)naphthalene-6-sulfonic acid (TNS) were diluted into these solutions to obtain a final concentration of 20 μM lipid and 6 μM TNS, respectively. Fluorescence intensity was read on a Glowmax discover plate reader at an excitation of 322 nm and an emission of 430 nm. pKa values were calculated as the pH corresponding to 50% LNP protonation, assuming minimum and maximum fluorescence values corresponded to zero and 100% protonation, respectively.

Data set [3] relates to gp33 and gp34 specific T-cells. The experiment in a line: In vivo activity of LNPs: specific CD8 T-cells expansion in mice. The note with it: LNPs prepared using the compound, payload 3-GP mRNA (epitopes encoding gp33/34). The procedure:
LNPs prepared using compounds 100, 105, 106 and 109 respectively were evaluated for specific CD8 T-cells expansion in mice where the payload is 3-GP mRNA (comprising epitopes encoding gp33/34).

`CCCCCCCCCCCCCCC(/C=C(\C)CCC=C(C)C)OC(=O)CSSCC(=O)OCCCN(C)C` (centres unmarked) [Compound 100]: in data set [1] (room temperature), the “Lipids stability characterized by 1H NMR, Room Temperature 1 week” value is given as “+”; the “Lipids stability characterized by 1H NMR, Room Temperature 2 months” value is “Major”; the “Lipids stability characterized by 1H NMR, Room Temperature 2 weeks” value is “Minor”; the “Lipids stability characterized by 1H NMR, Room Temperature 3 weeks” value is listed as “Minor”. The “Lipids stability characterized by 1H NMR, Room Temperature 4 weeks” value in data set [1] (room temperature) is reported as “Minor”. For the same compound, in data set [1] (room temperature, 3 months), the “Lipids stability characterized by 1H NMR, Room Temperature 3 months” value is given as “Major”. The “Lipids stability characterized by 1H NMR, At −20° C.” value in data set [1] (3 months) is on record as “+”. In addition, the “Surface pKa” value in data set [2] is 7.5. Besides, the “specific CD8 T-cells expansion” value in data set [3] was “effective at expanding both gp33 and gp34 specific T-cells”.

On to `CCCCC/C=C\CCC(CCCCCCCCCCCCCC)C(CCCCCCCCCCCCCC)OC(=O)CCSSCCC(=O)OCCCN(C)C` (centres unmarked) [Compound 109, 3-(dimethylamino)propyl-3-[[3-[2-[(Z)-non-3-enyl]-1-tetradecyl-hexadeoxy]-3-oxo-propyl]disulfanyl]propanoate], for which, in data set [1] (room temperature), the “Lipids stability characterized by 1H NMR, Room Temperature 1 week” value is listed as “+”; the “Lipids stability characterized by 1H NMR, Room Temperature 2 months” value is “+”; the “Lipids stability characterized by 1H NMR, Room Temperature 2 weeks” value is “+”; the “Lipids stability characterized by 1H NMR, Room Temperature 3 weeks” value was “+”. In addition, in data set [1] (room temperature), the “Lipids stability characterized by 1H NMR, Room Temperature 4 weeks” value is recorded as “+”. For the same compound, in data set [1] (3 months), the “Lipids stability characterized by 1H NMR, At −20° C.” value is on record as “+”. Moreover, in data set [2], the “Surface pKa” value turned out to be 7.0. The “specific CD8 T-cells expansion” value in data set [3] was “effective at expanding both gp33 and gp34 specific T-cells”.
